Experimental data: article PMC6017121, “New Thiazoline-Tetralin Derivatives and Biological Activity Evaluation” (Molecules : A Journal of Synthetic Chemistry and Natural …, 2018)

Assays:
[1] = tested on: human breast adenocarcinoma cell line (MCF-7); test: MTT cytotoxicity assay on MCF-7; assay type: cell-based; conditions: for IC50: MTT, 24 h incubation; for SI MCF-7 (selectivity index): NIH/3T3 versus MCF-7
Description: (§1) This is a colorimetric assay that measures the reduction of 3-(4,5-dimethylthiazol-2-yl)-2,4,diphenyltetrazolium bromide (MTT) by mitochondria. All final compounds were tested against human breast adenocarcinoma cell line (MCF-7), human lung carcinoma cell line (A549) and mouse embryooblast cell line (NIH/3T3) to determine their cytotoxic profile. Cancer cells were cultured in RPMI medium (Hyclone, Thermo Scientific, Waltham, MA, USA) at 37 °C in a humidified atmosphere of 95% air and 5% CO2. The studied cells were situated at 2 × 10^4 cells into each well of 96-well microtiter tissue culture plates (Nunc, Denmark) and incubated for 24 h. After that, test compounds were dissolved in DMSO and added to culture wells at varying concentrations (85–1000 µM). After a 24 h incubating period, […] MTT solution (5 mg/mL MTT powder in PBS) was added to each well and the cells were incubated for 4 h at 37 °C. The purple formazan crystals produced were dissolved in DMSO and the absorbance was read by ELISA reader (OD570 nm). The percent values of cell proliferations were calculated relative to controls, whose cell proliferations were accepted as 100% [47].

[2] = tested on: human lung carcinoma cell line (A549); test: MTT cytotoxicity assay on A549; assay type: cell-based; conditions: for IC50: MTT, 24 h incubation; for SI A549 (selectivity index): NIH/3T3 versus A549
Description: as §1

MCF-7 cells [3] = test: Annexin V-FITC/propidium iodide flow cytometry on MCF-7; assay type: cell-based, human; conditions: MCF-7 cell line, IC50 concentration; for % Early Apoptotic / % Late Apoptotic / % Necrotic / % Viable: 24 h
Description: (§2) Evaluation of apoptosis was carried out through the Annexin V-FITC Apoptosis Detection Kit from BD, Pharmingen, according to the manufacturer’s instruction. […] Then cells were rinsed with cold water twice and resuspended in Annexin V-FITC binding buffer at a concentration of 1 × 10^6 cells/mL. […] of Annexin V-FITC was used to stain the cells. After 15 min of incubation at 25 °C, the cell suspension was centrifugated for 5 min and cells were resuspended in Annexin V-FITC binding buffer. Propidium iodide ([…]) was added and the tubes were situated on ice and away from light. The fluorescence was measured using a flow cytometer. The results were analyzed by using FCSExpress software and represented as percentage of normal and apoptotic cells at various stages. […] The four areas in the diagrams stand for necrotic cells (Q1, positive for PI and negative for annexin/FITC, left square on the top), live cells (Q3, negative for annexin and PI, left square at the bottom), late apoptotic or necrotic cells (Q2, positive for annexin and PI, right square on the top) and apoptotic cells (Q4, negative for PI and positive for annexin, right square at the bottom), respectively. The experiment was repeated three times.

A549 cells [4] = test: Annexin V-FITC/propidium iodide flow cytometry on A549; assay type: cell-based, human; conditions: A549 cell line, IC50 concentration; for % Early Apoptotic / % Late Apoptotic / % Necrotic / % Viable: 24 h
Description: as §2

A549 cells [5] = test: DNA synthesis inhibition (BrdU) on A549
Description: The 5-bromo-2′-deoxy-uridine (BrdU) cell proliferation assay [48] was used to detect the proliferation of A549 and C6 cells. […] At the end of each day, the cells were labelled with 10 mL BrdU solution for 2 h and then fixed. Anti-BrdU-POD (100 mL) was added and incubated for 90 min. Finally, microtiter plates were washed with phosphate buffered saline (PBS) three times and the cells were incubated with substrate solution until the color was sufficient for photometric detection. […] The growth percentage was evaluated spectrophotometrically versus untreated controls with used cell viability of growth assay. Results for each spectrophotometrical measure were noticed as percent of growth inhibition. All experiments were done in triplicates.
Mean percent absorbance of untreated control cells were assumed 0%. […] Data points represent means for three independent wells ± SD. p < 0.05.

[6] = tested on: mouse embryoblast cell line (NIH/3T3); test: MTT cytotoxicity assay on NIH/3T3 (healthy cells); assay type: cell-based; conditions: NIH3T3, 24 h incubation
Description: as §1

[7] = target: acetylcholinesterase (AChE) (Homo sapiens, UniProt P22303); test: biochemical; conditions: 80 µg/mL (~160 µM)
Description: (§3) In order to determine the acetyl- and butyrylcholinesterase enzyme inhibitions, experiments were carried out by making some changes in the method developed by Ellman. Samples were prepared by dissolving in the appropriate solvent. Adding 20 μL enzyme solution (AChE or BuChE, 1 U/mL) and 10 μL sample solution to 2.4 mL buffer solution and it was incubated for 15 min at 37 °C. After incubation, 50 μL DTNB and 75 mM ATCI solution or 20 μL of 25 mM BTCI solution were added and allowed the mixture to incubate at room temperature for 30 min. For the control group, only 10 μL of solvent was added instead of the sample solution provided all protocols are the same. […] Experiments were run in triplicate. The inhibition fractions of AChE […] BuChE enzymes were calculated using the following equation:I(%) = 100 − ([…]) × 100

[8] = target: butyrylcholinesterase (BuChE) (Homo sapiens, UniProt P06276); test: biochemical; conditions: 80 µg/mL (~160 µM)
Description: as §3

MCF-7 cells [9] = test: DNA synthesis inhibition (BrdU) on MCF-7; conditions: for DNA synthesis inhibition on MCF-7 at IC50/2: IC50/2 concentration (4b 34.6 μM; 4d 36.9 μM, b49: 35.9 μM)
[10] = Homo sapiens, MCF7, 96 h, read-out: DNA synthesis inhibition on MCF-7 at IC50

Chain of acetylcholinesterase (AChE) (P22303 32-614, species assumed): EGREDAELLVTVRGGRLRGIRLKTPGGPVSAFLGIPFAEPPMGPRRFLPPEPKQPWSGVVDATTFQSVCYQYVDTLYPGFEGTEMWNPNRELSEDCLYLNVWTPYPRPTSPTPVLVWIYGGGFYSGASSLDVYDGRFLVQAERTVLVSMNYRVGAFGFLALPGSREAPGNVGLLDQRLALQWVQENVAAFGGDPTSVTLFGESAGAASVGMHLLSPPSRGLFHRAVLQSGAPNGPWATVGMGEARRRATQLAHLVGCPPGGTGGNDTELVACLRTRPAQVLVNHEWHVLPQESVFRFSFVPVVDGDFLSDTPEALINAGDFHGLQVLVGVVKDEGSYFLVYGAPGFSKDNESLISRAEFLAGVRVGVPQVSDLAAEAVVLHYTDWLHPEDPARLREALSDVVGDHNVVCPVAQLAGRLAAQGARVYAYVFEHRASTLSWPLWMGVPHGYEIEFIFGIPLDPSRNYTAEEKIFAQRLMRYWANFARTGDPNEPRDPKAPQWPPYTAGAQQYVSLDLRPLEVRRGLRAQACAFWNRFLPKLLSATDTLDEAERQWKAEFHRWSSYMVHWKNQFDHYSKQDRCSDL
Chain of butyrylcholinesterase (BuChE) (P06276 29-602): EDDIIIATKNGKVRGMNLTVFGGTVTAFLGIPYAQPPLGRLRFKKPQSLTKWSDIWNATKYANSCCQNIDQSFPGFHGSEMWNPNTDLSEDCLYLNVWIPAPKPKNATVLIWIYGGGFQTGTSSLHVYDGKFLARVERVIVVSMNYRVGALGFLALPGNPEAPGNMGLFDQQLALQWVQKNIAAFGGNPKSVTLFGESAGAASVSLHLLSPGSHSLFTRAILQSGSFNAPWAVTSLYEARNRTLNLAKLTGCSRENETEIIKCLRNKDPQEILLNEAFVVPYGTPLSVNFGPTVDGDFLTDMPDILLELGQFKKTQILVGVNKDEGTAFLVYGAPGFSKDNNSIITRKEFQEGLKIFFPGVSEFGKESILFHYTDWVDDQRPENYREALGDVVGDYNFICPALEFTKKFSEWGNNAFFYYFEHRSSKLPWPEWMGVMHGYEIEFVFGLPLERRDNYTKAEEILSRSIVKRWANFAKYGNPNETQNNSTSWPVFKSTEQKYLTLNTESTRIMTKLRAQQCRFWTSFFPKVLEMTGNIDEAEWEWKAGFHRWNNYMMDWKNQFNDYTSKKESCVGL

Compound | % Early Apoptotic (MCF-7 cells [3]) | % Late Apoptotic (MCF-7 cells [3]) | % Necrotic (MCF-7 cells [3]) | apoptosis (early + late apoptotic cell percentage) A549 (A549 cells [4]) | % Early Apoptotic (A549 cells [4]) | % Late Apoptotic (A549 cells [4]) | % Necrotic (A549 cells [4]) | IC50 ([1]; Homo sapiens, MCF7) | SI MCF-7 (selectivity index) [1] | IC50 ([2]; Homo sapiens, A549) | IC50 [6] | inhibition at 160 µM [7] | inhibition at 160 µM [8] | SI A549 (selectivity index) [2] | % Viable (A549 cells [4]) | inhibition at 80 µg/mL [8] | other results
N.N.[Cl][Pt][Cl] [Cisplatin, cisplatin, reference compound] | 2.8% | 27.1% | 28.1% | 40.2% | 14.9% | 25.3% | 6.7% |  |  |  |  |  |  |  |  |  | IC50 [1]: 100 ± 3.3 µM; IC50 [2]: 108 ± 11.8 µM; apoptosis (early + late apoptotic cell percentage) MCF-7 (MCF-7 cells [3]): 29.9%; DNA synthesis inhibition on A549 at IC50/2 (A549 cells [5]; IC50/2 concentration (4h 24.3 μM; cisplatin 54.2 μM)): 32.86%; DNA synthesis inhibition on A549 at IC50 (A549 cells [5]; IC50 concentration (4h 48.6 μM; cisplatin 108.3 μM)): 50.33%
Cc1ccc(-c2csc(=NNC(=O)COc3ccc4c(c3)CCCC4)n2-c2ccccc2)cc1 [Compound 4d, N′-[3-Phenyl-4-(4-methylphenyl)thiazole-2(3H)-ylidene]-2-[(5,6,7,8-tetrahydronaphthalen-2-yl)oxy]acetohydrazide] | 1.1% | 12.1% | 36.1% |  |  |  |  | 71.8 ± 12.5 µM | > 13.9 | > 1000 µM | > 1000 µM | 43.2 ± 1.56% | 33.2 ± 2.38% |  |  |  | % Viable (MCF-7 cells [3]): 50.7%; inhibition at 71.8 µM (MCF-7 cells [9]; [10]): 72.2%; DNA synthesis inhibition on MCF-7 at IC50/2 (MCF-7 cells [9]): 47.75%
COc1ccc(-c2csc(=NNC(=O)COc3ccc4c(c3)CCCC4)n2C2CCCCC2)cc1 [Compound 4b, N′-[3-Cyclohexyl-4-(4-methoxyphenyl)thiazole-2(3H)-ylidene]-2-[(5,6,7,8-tetrahydronaphthalen-2-yl)oxy]acetohydrazide] | 0.7% | 29.1% | 63.8% | 73.6% | 6.6% | 67.0% | 15.6% | 69.2 ± 5.8 µM | 0.8 | 138 ± 7.2 µM | 55.7 ± 1.2 µM | 11.1 ± 1.48% | 15.9 ± 1.72% | 0.4 | 10.9% |  | apoptosis (early + late apoptotic cell percentage) MCF-7 (MCF-7 cells [3]): 29.8%; % Viable (MCF-7 cells [3]): 6.3%; inhibition at 69.2 µM (MCF-7 cells [9]; [10]): 48.5%; DNA synthesis inhibition on MCF-7 at IC50/2 (MCF-7 cells [9]): 31.39%
O=C(COc1ccc2c(c1)CCCC2)NN=c1scc(-c2ccc([N+](=O)[O-])cc2)n1-c1ccccc1 [Compound 4j, N′-[3-Phenyl-4-(4-nitrophenyl)thiazole-2(3H)-ylidene]-2-[(5,6,7,8-tetrahydronaphthalen-2-yl)oxy]acetohydrazide] |  |  |  | over 41.5% | 11.2% | 30.3% | 11.4% | > 1000 µM |  | 49 ± 1.41 µM | > 1000 µM | 45 ± 1.6% |  | > 20.4 | 47.0% | < 0% | 
O=C(COc1ccc2c(c1)CCCC2)NN=c1scc(-c2ccc(Br)cc2)n1-c1ccccc1 [Compound 4f, N′-[3-Phenyl-4-(4-bromophenyl)thiazole-2(3H)-ylidene]-2-[(5,6,7,8-tetrahydronaphthalen-2-yl)oxy]acetohydrazide] |  |  |  | over 41.5% | 16.5% | 29.3% | 6.5% | 281 ± 56.2 µM | 0.5 | 54.3 ± 6.8 µM | 147 ± 5.4 µM | 42.9 ± 2.84% |  | 2.7 | 47.7% | < 0% | 
O=C(COc1ccc2c(c1)CCCC2)NN=c1scc(-c2ccccc2)n1C1CCCCC1 [Compound 4a, N′-(3-Cyclohexyl-4-phenylthiazole-2(3H)-ylidene)-2-[(5,6,7,8-tetrahydronaphthalen-2-yl)oxy]acetohydrazide] |  |  |  | over 50% | 7.4% | 48.3% | 12.8% | > 1000 µM | < 0.2 | 158 ± 14.8 µM | 206 ± 15.3 µM | 38.3 ± 2.18% | 28 ± 1.88% | 1.3 | 31.5% |  | 
O=C(COc1ccc2c(c1)CCCC2)NN=c1scc(-c2ccc(Cl)cc2)n1-c1ccccc1 [Compound 4g, N′-[3-Phenyl-4-(4-chlorophenyl)thiazole-2(3H)-ylidene]-2-[(5,6,7,8-tetrahydronaphthalen-2-yl)oxy]acetohydrazide] |  |  |  | over 41.5% | 18.7% | 26.0% | 5.8% | 483 ± 31.2 µM | 0.5 | 28.6 ± 4.1 µM | 224 ± 20.5 µM | 24.4 ± 1.2% |  | 7.8 | 49.4% | < 0% | 
O=C(COc1ccc2c(c1)CCCC2)NN=c1scc(-c2cccc([N+](=O)[O-])c2)n1-c1ccccc1 [Compound 4i, N′-[3-Phenyl-4-(3-nitrophenyl)thiazole-2(3H)-ylidene]-2-[(5,6,7,8-tetrahydronaphthalen-2-yl)oxy]acetohydrazide] |  |  |  |  |  |  |  | > 1000 µM |  | > 1000 µM | > 1000 µM | 41.85 ± 0.23% |  |  |  | < 0% | 
COc1ccc(-c2csc(=NNC(=O)COc3ccc4c(c3)CCCC4)n2-c2ccccc2)cc1 [Compound 4e, N′-[3-Phenyl-4-(4-methoxyphenyl)thiazole-2(3H)-ylidene]-2-[(5,6,7,8-tetrahydronaphthalen-2-yl)oxy]acetohydrazide] |  |  |  |  |  |  |  | 91.4 ± 9.8 µM | > 10.9 | 708 ± 83.3 µM | > 1000 µM | 10.8 ± 0.94% |  | > 1.4 |  | < 0% | apoptosis (early + late apoptotic cell percentage) MCF-7 (MCF-7 cells [3]): 32.5%
O=C(COc1ccc2c(c1)CCCC2)NN=c1scc(-c2cccc(Cl)c2Cl)n1-c1ccccc1 [Compound 4k, N′-[3-Phenyl-4-(2,3-dichlorophenyl)thiazole-2(3H)-ylidene]-2-[(5,6,7,8-tetrahydronaphthalen-2-yl)oxy]acetohydrazide] | 2.4% | 8.9% | 34.4% |  |  |  |  | 153 ± 27.5 µM | 1.1 | > 1000 µM | 165 ± 11 µM | 15.2 ± 1.99% |  |  |  | < 0% | % Viable (MCF-7 cells [3]): 54.3%
O=C(COc1ccc2c(c1)CCCC2)NN=c1scc(-c2ccccc2)n1-c1ccccc1 [Compound 4c, N′-[3,4-Diphenylthiazole-2(3H)-ylidene]-2-[(5,6,7,8-tetrahydronaphthalen-2-yl)oxy]acetohydrazide] |  |  |  |  |  |  |  | 297 ± 46.6 µM | > 3.4 | > 1000 µM | > 1000 µM | 19.3 ± 1.87% | 16.48 ± 0.08% |  |  |  | 
